Patent US4546107A, “1,4-Methano-2-benzazepine derivatives useful as cerebal dysfunction-improving drugs, anti-convulsant, anti-epileptic or anti-anxiety drugs” (priority 1982, dated 1985)

What was measured:
[1] = system: picrotoxin; assay: Anti-picrotoxin action (picrotoxin-induced lethality in mice); format: in vivo, male dd mice; conditions: for ED50: Mus musculus, po, 0.5 h, read-out: Anti-picrotoxin-lethal action, ED50
Procedure: 1. Anti-picrotoxin Action
Groups each of 7-14 male dd mice were used. A test compound was orally administered and 60 minutes thereafter, picrotoxin (5 mg/kg) was administered subcutaneously. The 50% anti-lethal dose (ED50) was calculated from the servival rate within 30 minutes.

[2] = system: bicuculline; assay: Anti-bicuculline action (bicuculline-induced tonic-extensile convulsions in mice); format: in vivo, male dd mice; conditions: for ED50: Mus musculus, po, 5 min, read-out: Anti-bicuculline-convulsive action, ED50
Procedure: 2. Anti-bicuculline Action
Groups each of 4-14 male dd mice were used. Each test compound was administered orally and 60 minutes thereafter, bicuculline (0.6 mg/kg) was administered intravenously. The dose (ED50) required for 50% suppression of the occurrence of tonic-extensile convulsions within 5 minutes against the control group was determined.

Compound	ED50 [1]	Anti-picrotoxin-lethal action, percent in parentheses ([1]; printed beside ED50 >100 mg/kg, p.o., mice, picrotoxin 5 mg/kg s.c.)	ED50 [2]	Anti-bicuculline-convulsive action, percent in parentheses ([2]; printed beside ED50 >100 mg/kg, p.o., mice, bicuculline 0.6 mg/kg i.v.)
COc1ccc2c(c1)C1CC(C2)C(=O)N1C (stereo not drawn) [E, 8Methoxy-2-methyl-1,4-methano-2,3,4,5-tetrahydro-1H--2-benzazepin3-one]	> 100 mg/kg	0%	> 100 mg/kg	0%
O=C1NC2CC1Cc1ccc(Cl)cc12 (stereo not drawn) [A, 8-chloro-1,4-methano-2,3,4,5-tetrahydro-1H-2-benzazepin-3-one]	62 mg/kg		95 mg/kg	
O=C1NC2CC1Cc1ccccc12 (stereo not drawn) [D, 1,4Methano-2,3,4,5-tetrahydro-1H--2benzazepin-3-one]	1100 mg/kg		> 1000 mg/kg	
O=C1NC2CC1Cc1c(Cl)cc(Cl)cc12 (stereo not drawn) [C, 6,8-dichloro-1,4-methano-2,3,4,5-tetrahydro-1H-2-benzazepin-3-one]	50 mg/kg		73 mg/kg	
CN1C(=O)C2Cc3ccc(Cl)cc3C1C2 (stereo not drawn) [B, 8-chloro-2-methyl-1,4-methano-2,3,4,5-tetrahydro-1H-2-benzazepin-3-one]	66 mg/kg		45 mg/kg	
